Series [1] relates to summer-active ground squirrels. The following applies: administered to summer-active ground squirrels; cited from earlier work.
In series [2] the test system is isolated or transplanted organs including heart, lung and kidneys. The following applies: cited from earlier work.
In series [3] the test system is skin of the malar surface of the face. Briefly: Blinded split-face topical application of deltorphin cream: skin appearance and wrinkles. In kind it is in vivo. The protocol:
(§1) A test subject (body weight ˜71 kg) received an application of 10 μg deltorphin, constituted in an inert base, to the malar surface on the left side of the face extending from the periorbital region to the mandible. The inert base (without the deltorphin) was applied to the right side of the face but the subject was blind to which cream contained the deltorphin. The cream was applied twice daily, in the morning and night. After 3 weeks, the subject was observed.
A test subject (˜55 kg) received an application of 1 μg of deltorphin in an inert base to the malar surface of the right side of the face, with an identical inert cream applied to the left in a blinded fashion (the subject was unaware of which cream contained the active peptide). After three weeks of morning and evening application of the cream (no other topical agents were applied), the subject was scored for appearance.
(§2) A test subject (˜61 kg) received an application of 100 μg of deltorphin in an inert base to the malar surface on the right side, with an equal amount of inert base, but no active peptide, applied blindly to the left side of the face. The two creams were applied twice daily, morning and night, for three weeks prior to being observed.

The test system is the same in series [4]. Put plainly: Blinded split-face topical application of deltorphin cream: local tolerance (irritation, allergy). In kind it is in vivo. The protocol:
as §1, §2

Where [5] appears, read: Example 1: subject, 10 μg deltorphin in inert base, twice daily, 3 weeks.
Setting [6] is: Example 3: subject, 100 μg deltorphin in inert base, twice daily, three weeks.

Square brackets hold non-standard residues; d marks the D form. Peptide text beside a SMILES is read from it.

In the case of `CC(C)C[C@@H](NC(=O)[C@H](Cc1ccccc1)NC(=O)CNC(=O)[C@@H](C)NC(=O)[C@@H](N)Cc1ccc(O)cc1)C(=O)O` [DADLE, Tyr-D-Ala-Gly-Phe-D-Leu], in series [1], the induction of hibernation entry is on record as “induces hibernation”. Further, the “viability and preservation of organs” value in series [2] was “improves the viability and preservation”.

Take `CSCC[C@H](NC(=O)[C@H](CC(C)C)NC(=O)[C@H](Cc1c[nH]cn1)NC(=O)[C@H](Cc1ccccc1)NC(=O)[C@@H](CCSC)NC(=O)[C@@H](N)Cc1ccc(O)cc1)C(=O)N[C@@H](CC(=O)O)C(N)=O` [deltorphin, Tyr-D-Met-Phe-His-Leu-Met-Asp-NH2] (H-Y[dM]FHLMD-NH2): the “appearance of treated side of the face versus inert-base side” value was “noticeable improved appearance” in series [3] (Example 1: subject, 10 μg deltorphin in inert base, left side, twice daily, 3 weeks); “noticeable difference was apparent” in series [3] (Example 2: subject, 1 μg deltorphin in inert base, right side, morning and evening, three weeks); “significant and visible improvements” in series [3] (Example 3: subject, 100 μg deltorphin in inert base, right side, twice daily, three weeks). In addition, in series [3] (setting [5]), the “wrinkles (fine and moderate)” value is given as “appeared diminished”. The “wrinkles, particularly in the periorbital region” value in series [3] (Example 2: subject, 1 μg deltorphin in inert base, morning and evening, three weeks) was “marked reduction in wrinkles”. Further, the “wrinkles (fine and deep)” value in series [3] (setting [6]) is “readily notable improvements and diminishment in wrinkles”.

For `CSCC[C@H](NC(=O)[C@H](CC(C)C)NC(=O)[C@H](Cc1cnc[nH]1)NC(=O)[C@H](Cc1ccccc1)NC(=O)[C@@H](CCSC)NC(=O)[C@@H](N)Cc1ccc(O)cc1)C(=O)N[C@@H](CC(=O)O)C(N)=O` [deltorphin, Tyr-D-Met-Phe-His-Leu-Met-Asp-NH2] (H-Y[dM]FHLMD-NH2), the “signs of irritation, redness, heat or swelling” value in series [4] (setting [5]) was “no sign of any irritation, no redness, heat or swelling”. For the same compound, the “eye irritation after inadvertent contact of the cream with the eye” value in series [4] (Example 3: subject, 100 μg deltorphin cream, one occasion, subject's report) is “without any significant eye irritation or redness”. The “signs of allergy, hypersensitivity or irritation (redness, swelling, heat, pruritus)” value in series [4] (setting [6]) is “no signs of any allergy, hypersensitivity or irritation”.

These data come from patent publication US20100221200A1, “COMPOSITIONS AND METHODS FOR SKIN CARE” (THE OHIO STATE UNIVERSITY RESEARCH FOUNDATION, priority 2007, published 2010).
